Measured values reported in patent US20110263693A1, “CELASTROL, GEDUNIN, AND DERIVATIVES THEREOF AS HSP90 INHIBITORS” (DANA-FARBER CANCER INSTITUTE, INC., priority 2006, published 2011).

Tests used:
[1] = test system: HSP90 interaction with the cochaperone p23; assay: HSP90 coimmunoprecipitation, p23; format: cell-based; conditions: SKBR-3 cells; celastrol 2.5 μM, 12 hr
Protocol: Geldanamycin and other HSP90 inhibitors are known to inhibit p23 association with HSP90 (Felts et al., 2003).
SKBR-3 cells were treated with vehicle, celastrol (2.5 μM, 12 hr), and PU24FCI (20 μM, 24 hr) (Vilenchik et al., 2004). Cells were lysed in 20 mM Tris HCl (pH 7.4), 25 mM NaCl, 2 mM DDT, 20 mM Na2MoO4, 0.1% NP-40, and […]. Lysates were incubated for 2 hr at 4° C., rotating, and then centrifuged at 13,000×g for 10 min. Protein (500 μg) was incubated with H9010 anti-HSP90 antibody for 1 hr at 4° C., rotating. Protein G agarose (30 μl; Upstate) was added to each sample, and samples were then incubated for 1 hr at 4° C., rotating. The beads were washed five times with 1 ml lysis buffer. Bound proteins were isolated by boiling in sample buffer. The levels of HSP90 and coimmunoprecipitating proteins were analyzed by western blot.

Raf-1 = assay: Western blot of HSP90 client Raf-1 level; format: cell-based; conditions: LNCaP, 1.25 μM, 24 hours
[2] = test system: rat models for Alzheimer's disease; conditions: 7 mg/kg daily; cited from earlier work
gedunin signature = assay: Connectivity Map query with the gedunin signature; format: cell-based, human
Method in brief: (§1)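 LNCaP cells received celastrol 1.25 μM or gedunin 20 μM for 6 h. Each signature was scored by Kolmogorov–Smirnov-based connectivity against 453 build01 profiles, mostly 6 h treatments of MCF7 cells.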

celastrol signature = assay: Connectivity Map query with the celastrol signature; format: cell-based, human
Method in brief: as §1

## CC1=C(O)C(=O)C=C2C1=CC=C1[C@@]2(C)CC[C@@]2(C)[C@@H]3C[C@](C)(C(=O)O)CC[C@]3(C)CC[C@]12C [celastrol]
[1]
  HSP90 interaction with cochaperone p23 (coimmunoprecipitation): reduced HSP90 interaction with the cochaperone p23
Raf-1
  level of Raf-1: decreases the levels
[2]
  activity in rat models for Alzheimer's disease: activity
Gedunin signature; enrichment of the gedunin signature (20 μM gedunin at 6 hours, LNCaP) in the compound's Connectivity Map profiles, 6 hr treatment
  gedunin score (connectivity score): 0.997
Gedunin signature; out of 164 compounds, signature from LNCaP 20 μM, 6 hr
  Connectivity Map rank of match for the gedunin signature: top match
Celastrol signature; enrichment of the celastrol signature (1.25 μM celastrol at 6 h, LNCaP) in the compound's Connectivity Map profiles, 6 hr treatment
  celastrol score (connectivity score): 0.85
Celastrol signature; out of 164 compounds, signature from LNCaP 1.25 μM, 6 hr
  Connectivity Map rank of match for the celastrol signature: fourth-ranked match
